Values quoted from earlier work as cited in paper PMC11949389 (Polish Journal of Microbiology, 2025).
Values after ≈ are worked out from the molar mass of the structure shown.

Tests used:
[1] = test system: Methicillin-susceptible Staphylococcus aureus; conditions: ref Owen et al. 2019
[2] = test system: Staphylococcus pseudintermedius
Campylobacter jejuni [3] = test system: Campylobacter jejuni
Klebsiella pneumoniae = conditions: ref Sayout et al. 2020, de Souza et al. 2021, Kwiatkowski et al. 2022
Proteus mirabilis = conditions: ref Sim et al. 2019
Campylobacter jejuni [4] = conditions: C. jejuni; ref Šimunović et al. (2020)
[5] = test system: Extended-spectrum beta-lactamases Escherichia coli; conditions: ESBL Escherichia coli; ref Khan et al. 2020
[6] = test system: carbapenem and polymyxin-resistant Klebsiella pneumoniae; conditions: murine models, compared to polymyxin B treatment; ref de Souza et al. (2021)
[7] = test system: bacteria co-isolated with C. albicans; conditions: ref Touil et al. (2020)
[8] = test system: C. albicans and co-isolated bacteria; conditions: carvacrol combined with cuminaldehyde; ref Touil et al. (2020)
TetK efflux pump = conditions: S. aureus, ref Sousa Silveira et al. (2020)
[9] = test system: Mycobacterium biofilms, including Mycobacterium abscessus and Mycobacterium fortuitum; conditions: even at sub-MIC concentrations; ref Marini et al. (2019)

## Cc1ccc(C(C)C)cc1O [Carvacrol]
[1]
  MIC/Sensitivity: 297435.6 µg/mL (≈ 1980 mM)
[2]; S. pseudintermedius, ref Sim et al. (2019)
  MIC90: 146 µg/mL (≈ 0.972 mM)
[2]; Staphylococcus pseudintermedius, ref Sim et al. 2019
  MIC/Sensitivity: 146 to 292 µg/mL
Campylobacter jejuni [3]; Campylobacter jejuni, ref Šimunović et al. 2020
  MIC/Sensitivity: 31.25 µg/mL (≈ 0.208 mM)
Campylobacter jejuni [3]; ref Šimunović et al. (2020)
  MIC: 31.25 µg/mL (≈ 0.208 mM)
Klebsiella pneumoniae
  MIC/Sensitivity: 130 to 1910 µg/mL
Proteus mirabilis
  MIC/Sensitivity: 146 to 292 µg/mL
Campylobacter jejuni [4]
  efflux pump inhibition: weaker effect
[5]
  Mechanisms of action: • Disintegration of bacterial cell membranes • Elevation of reactive oxygen species levels • Protected macrophage cells from bacterial invasion • Increased the release of K+ ions, ATP, and cellular DNA • Anti-biofilm properties
[6]
  bacterial counts in infections: reduced bacterial counts
  survival: significantly improved survival
[7]
  MIC: 1,000 μg/ml
[8]
  MIC in combination: 60 to 250 µg/mL
TetK efflux pump
  efflux pump inhibition: did not act as efflux pump inhibitors
[9]
  effect on biofilms: inhibited biofilm formation and disrupted pre-formed biofilms
